Measured values as given in ChEMBL document CHEMBL1155232, “Aminoimidazoles as potent and selective human beta-secretase (BACE1) inhibitors” (J Med Chem, 2009).
Active and inactive are the calls of the source. The calls are words filed in the database; no cut-off is given here.

How the values were obtained:
Cathepsin D [1] = target: T1, Cathepsin D (Homo sapiens, UniProt P07339); test: Inhibition of human cathepsin D by FRET
Beta-secretase 2 = target: T2, Beta-secretase 2 (Homo sapiens, UniProt Q9Y5Z0)
T2 sequence (Q9Y5Z0 whole entry): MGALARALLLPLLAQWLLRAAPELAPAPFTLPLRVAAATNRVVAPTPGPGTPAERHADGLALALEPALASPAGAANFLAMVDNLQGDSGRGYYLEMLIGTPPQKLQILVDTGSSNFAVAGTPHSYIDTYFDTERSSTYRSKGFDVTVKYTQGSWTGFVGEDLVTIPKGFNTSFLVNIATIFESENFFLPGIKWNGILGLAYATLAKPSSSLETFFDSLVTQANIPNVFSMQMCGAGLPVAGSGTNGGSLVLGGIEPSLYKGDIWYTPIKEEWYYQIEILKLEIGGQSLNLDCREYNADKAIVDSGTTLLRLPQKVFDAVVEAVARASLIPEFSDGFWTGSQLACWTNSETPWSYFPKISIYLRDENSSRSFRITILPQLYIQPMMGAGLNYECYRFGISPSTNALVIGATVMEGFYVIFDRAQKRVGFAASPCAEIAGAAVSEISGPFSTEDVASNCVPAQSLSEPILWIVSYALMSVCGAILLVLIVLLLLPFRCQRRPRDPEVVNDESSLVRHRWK

Beta-secretase 1 [2] = target: T3, Beta-secretase 1 (Homo sapiens, UniProt P56817); test: Inhibition of BACE1 expressed in CHO cells co-expressing human wild type APP protein by ELISA; format: cell-based
[3] = target: T4, Beta-secretase 2 (Homo sapiens) (UniProt Q9Y5Z0); test: Inhibition of human BACE2 at […] by FRET
T4 sequence (whole entry): T2 sequence (Q9Y5Z0 whole entry)

Beta-secretase 1 [4] = target: T3, Beta-secretase 1; test: Inhibition of human BACE1 by FRET
[5] = Inhibition of pepsin at 100 uM by FRET
Renin (Homo sapiens) = target: T5, Renin (Homo sapiens) (UniProt P00797); test: Inhibition of human recombinant renin at 50 uM by FRET
T5 sequence (whole entry): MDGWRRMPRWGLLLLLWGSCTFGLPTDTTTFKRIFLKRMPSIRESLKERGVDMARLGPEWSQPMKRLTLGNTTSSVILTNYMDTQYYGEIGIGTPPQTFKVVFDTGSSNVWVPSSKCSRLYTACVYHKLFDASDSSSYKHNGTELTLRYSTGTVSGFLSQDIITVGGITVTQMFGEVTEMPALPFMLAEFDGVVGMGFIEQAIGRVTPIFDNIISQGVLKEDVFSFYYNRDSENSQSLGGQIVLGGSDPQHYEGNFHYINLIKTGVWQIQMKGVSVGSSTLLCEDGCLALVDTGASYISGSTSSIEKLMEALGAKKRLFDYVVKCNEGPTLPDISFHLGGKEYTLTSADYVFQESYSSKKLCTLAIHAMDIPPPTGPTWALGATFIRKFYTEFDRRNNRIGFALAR

Renin = target: T6, Renin (Homo sapiens, UniProt P00797); test: Inhibition of human recombinant renin by FRET
T6 sequence (P00797 whole entry): T5 sequence (whole entry)

Mus musculus [6] = test: Reduction in Abeta-40 level in Tg2576 mouse plasma at 30 mg/kg, po administered as single dose after 6 hrs; format: functional; parameters: scale not given: the % may be the effect or the level left
Mus musculus [7] = test: Reduction in Abeta-40 level in Tg2576 mouse brain at 30 mg/kg, po administered as single dose after 6 hrs; format: functional, organism-based; parameters: dose 30 mg/kg
[8] = target: T4, Beta-secretase 2 (Homo sapiens); test: Inhibition of human BACE2 at 100 uM by FRET
Cathepsin D [9] = target: T1, Cathepsin D; test: Inhibition of human cathepsin D at 200 uM by FRET
Cathepsin D [10] = target: T1, Cathepsin D; test: Inhibition of human cathepsin D at 100 uM by FRET

T1 sequence (P07339 65-162 limits assumed): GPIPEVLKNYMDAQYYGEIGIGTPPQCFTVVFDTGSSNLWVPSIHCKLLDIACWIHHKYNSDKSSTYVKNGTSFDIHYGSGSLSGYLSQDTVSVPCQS
T1 sequence (P07339 169-412 limits assumed): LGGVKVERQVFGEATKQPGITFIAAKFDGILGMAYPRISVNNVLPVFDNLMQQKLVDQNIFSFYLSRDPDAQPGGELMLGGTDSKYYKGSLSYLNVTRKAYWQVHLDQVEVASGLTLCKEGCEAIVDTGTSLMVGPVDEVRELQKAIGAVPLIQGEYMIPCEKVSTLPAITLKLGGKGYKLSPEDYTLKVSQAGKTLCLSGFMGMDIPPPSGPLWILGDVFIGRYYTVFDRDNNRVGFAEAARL
T3 sequence (P56817 whole entry): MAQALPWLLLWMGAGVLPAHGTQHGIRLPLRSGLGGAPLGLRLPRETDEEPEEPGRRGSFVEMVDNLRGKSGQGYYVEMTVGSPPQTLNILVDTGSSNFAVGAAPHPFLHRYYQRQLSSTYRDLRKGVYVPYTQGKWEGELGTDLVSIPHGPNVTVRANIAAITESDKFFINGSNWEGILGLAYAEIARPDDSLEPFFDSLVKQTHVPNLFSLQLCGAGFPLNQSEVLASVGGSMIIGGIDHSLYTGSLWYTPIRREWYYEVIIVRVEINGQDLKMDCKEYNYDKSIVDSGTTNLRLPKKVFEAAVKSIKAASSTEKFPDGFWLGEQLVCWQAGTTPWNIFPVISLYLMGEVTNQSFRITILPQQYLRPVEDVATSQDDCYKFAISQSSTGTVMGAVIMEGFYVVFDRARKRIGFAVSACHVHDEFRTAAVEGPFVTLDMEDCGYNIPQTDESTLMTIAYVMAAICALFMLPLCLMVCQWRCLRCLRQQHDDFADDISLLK

Structure (SMILES) | IC50 (Cathepsin D [1]) [µM] | IC50 (Beta-secretase 2) [µM] | EC50 (Beta-secretase 1 [2]) [µM] | further results
COc1ccc(C2(c3cccc(-c4cncnc4)c3)N=C(N)N3CCCN=C32)cc1 (stereo unspecified) | 69.5 | 16.2 | – | –
NC1=NC(c2ccc(OC(F)(F)F)cc2)(c2cccc(-c3cccnc3F)c2)/C2=N/CCCCCN12 (stereo unspecified) | 11.3 | 10.8 | – | –
NC1=NC(c2cccc(-c3cccnc3F)c2)(c2ccc3c(c2)OC(F)(F)O3)C2=NCCCN12 (stereo unspecified) | 95.3 | – | – | –
NC1=NC(c2ccc(OC(F)(F)F)cc2)(c2cccc(CCC3CC3)c2)C2=NCCCN12 (stereo unspecified) | 16.4 | 3.78 | 0.95 | –
NC1=NC(c2ccc(OC(F)(F)F)cc2)(c2cccc(-c3cccnc3F)c2)C2=NCCCN12 (racemic) | 18.1 | – | – | –
NC1=NC(c2ccc(OC(F)(F)F)cc2)(c2cccc(-c3cncnc3)c2)C2=NCCCN12 (stereo unspecified) | 78.7 | 16.7 | – | –
NC1=NC(c2cccc(-c3cccnc3F)c2)(c2ccc3c(c2)OCO3)C2=NCCCN12 (stereo unspecified) | 15.4 | – | – | inhibition [5]: 18%; inhibition (Renin (Homo sapiens)): 24%
NC1=N[C@](c2ccc(OC(F)(F)F)cc2)(c2cccc(-c3cccnc3F)c2)C2=NCCCN12 | 6.9 | 3.6 | – | IC50 (Renin): 20.8 µM; Activity (Mus musculus [6]): 71%; inhibition [5]: 13%; Activity (Mus musculus [7]): inactive
NC1=N[C@@](c2ccc(OC(F)(F)F)cc2)(c2cccc(-c3cccnc3F)c2)C2=NCCCN12 | 56.9 | – | – | –
NC1=N[C@](c2ccc(OC(F)(F)F)cc2)(c2cccc(-c3cncnc3)c2)C2=NCCCN12 | 36.2 | 10.7 | – | inhibition [5]: 12%; inhibition (Renin (Homo sapiens)): 36%
NC1=NC(c2cccc(-c3cccnc3F)c2)(c2ccc3c(c2)OCCO3)C2=NCCCN12 (stereo unspecified) | 9.6 | – | – | –
COc1ccc(C2(c3cccc(-c4cccnc4F)c3)N=C(N)N3CCCN=C32)cc1 (stereo unspecified) | 16.5 | – | 1.63 | IC50 (Beta-secretase 1 [4]): 0.07 µM
CC1(C)CN2C(N)=NC(c3ccc(OC(F)(F)F)cc3)(c3cccc(-c4cccnc4F)c3)C2=N1 (stereo unspecified) | 33 | 17.3 | 1.5 | IC50 (Beta-secretase 1 [4]): 0.19 µM
CCOc1ccc(C2(c3cccc(-c4cccnc4F)c3)N=C(N)N3CCCN=C32)cc1OCC (stereo unspecified) | 63.4 | – | – | inhibition [5]: 11%; inhibition (Renin (Homo sapiens)): 14%; IC50 (Beta-secretase 1 [4]): 0.08 µM
NC1=NC(c2ccc(OC(F)(F)F)cc2)(c2cccc(-c3cccnc3F)c2)C2=NCCN12 (stereo unspecified) | 10.7 | – | – | –
NC1=NC(c2ccccc2)(c2ccccc2)C2=NCCCN12 | – | – | – | inhibition (Cathepsin D [9]): 16%
NC1=N[C@@](c2ccc(OC(F)(F)F)cc2)(c2cccc(-c3cncnc3)c2)C2=NCCCN12 | – | – | – | inhibition (Cathepsin D [10]): 29%
NC1=NC(c2ccc(OC(F)(F)F)cc2)(c2cccc(-c3cccnc3F)c2)C2=NOCCN12 (stereo unspecified) | 2.4 | – | 0.2 | IC50 (Renin): 2.04 µM; inhibition [5]: 12%
NC1=NC(c2ccc(OC(F)(F)F)cc2)(c2cccc(-c3cccnc3F)c2)C2=NCCCCN12 (stereo unspecified) | 10.8 | – | 0.3 | IC50 (Beta-secretase 1 [4]): 0.08 µM

The next lines start with results.

IC50 (Cathepsin D [1]) [µM] | IC50 (Beta-secretase 2) [µM] | EC50 (Beta-secretase 1 [2]) [µM] | Structure (SMILES) | further results
47.4 | – | 1.6 | NC1=NC(c2ccc(OC(F)(F)F)cc2)(c2cccc(Br)c2)C2=NCCCN12 (stereo unspecified) | inhibition [3]: 39%; IC50 (Beta-secretase 1 [4]): 2.6 µM
93.7 | – | 2.1 | CCCc1cccc(C2(c3ccc(OC(F)(F)F)cc3)N=C(N)N3CCCN=C32)c1 (stereo unspecified) | –
150 | – | 3 | CC(C)(C)c1cccc(C2(c3ccccc3)N=C(N)N3CCCN=C32)c1 (stereo unspecified) | inhibition [8]: 21%; IC50 (Beta-secretase 1 [4]): 30.2 µM
9.2 | 7 | 4.6 | NC1=NC(c2ccccc2)(c2cccc(Cc3ccc(F)cc3)c2)C2=NCCCN12 (stereo unspecified) | inhibition [5]: 6%; inhibition (Renin (Homo sapiens)): 15%
52.5 | 10.9 | 5.1 | NC1=NC(c2ccccc2)(c2cccc(Cc3ccccc3)c2)C2=NCCCN12 (stereo unspecified) | –
24.9 | 22.4 | 5.1 | COc1ccc(Cc2cccc(C3(c4ccccc4)N=C(N)N4CCCN=C43)c2)cc1 (stereo unspecified) | –
– | 24.4 | 20.9 | COc1cccc(C2(c3ccccc3)N=C(N)N3CCCN=C32)c1 (stereo unspecified) | inhibition (Cathepsin D [10]): 22%; IC50 (Beta-secretase 1 [4]): 20.3 µM
– | 30.1 | 5.1 | NC1=NC(c2ccccc2)(c2cccc(C(F)(F)F)c2)C2=NCCCN12 (stereo unspecified) | inhibition (Cathepsin D [10]): 28%; IC50 (Beta-secretase 1 [4]): 21.9 µM
